Measured values taken from US10800778B2 (Entasis Therapeutics Limited, priority 2016, dated 2020).

Columns and labels:
[1] = Stability in pH 7.4 buffer (no enzyme); format: physicochemical; details: read-out: T1/2 pH 7.4 Buffer
Experimental: (§1) The human intestinal S9 with the absence of PMSF, human liver S9, rat intestinal S9, and rat liver S9 preparations were obtained from Xenotech (Lenexa, Kans.). The 500-μL incubation solution contained 0.8 mg/mL of enzyme (or no enzyme for buffer stability), 10 μM of test compounds in 100 mM of HEPES buffer, pH 7.4. The hydrolysis reactions were conducted in a 1-mL glass insert (Analytical Sales, Pompton Plains, N.J.) in a shake water bath at 37° C. At 0, 2, 5, 10, 15, 30 and 60 min, the reaction was terminated by pipetting 50 μL incubate to a 96 DeepWell plate (Thermo Fisher Scientific, Rochester, N.Y.) containing 100 μL of acetonitrile with 250 ng/mL of Carbutamide (Sigma-Aldrich, St. Louis, Miss.) as the internal standard. The crashed solutions were then vortexed well followed by centrifuge at 4000 rpm for 15 min at 4° C. The extract was transferred to a new 96 DeepWell plate for LC-MS/MS analysis.
(§2) LC-MS/MS analysis was done using an AB Sciex QTrap 6500 mass spectrometer under positive ionization mode, coupled to a Schimadzu Nexera LC system.
(§3) A Waters Atlantis T3 (3 μm, 3.0×50 mm) column was used for separation. The mobile phase consisted 0.1% formic acid in water (A) and 0.1% formic acid in acetonitrile (B) with a flow rate set at 1.2 mL/min. For the prodrug analysis, the Multiple Reaction Monitoring (MRM) specific for each compound was set up so that both prodrug and its hydrolyzed active can be monitored simultaneously.
(§4) Half-lives listed are based on disappearance of starting ester.

[2] = Stability/conversion of esters in rat intestinal S9; format: in vitro ADME
Experimental: as §1, §2, §3, §4

[3] = Stability/conversion of esters in rat liver S9; format: in vitro ADME
Experimental: as §1, §2, §3, §4

[4] = Stability/conversion of esters in human intestinal S9; format: in vitro ADME
Experimental: as §1, §2, §3, §4

[5] = Stability/conversion of esters in human liver S9; format: in vitro ADME
Experimental: as §1, §2, §3, §4

[6] = s9, pH 7.4, read-out: T1/2 Rat Intestinal S9
[7] = s9, pH 7.4, read-out: T1/2 Rat Liver S9
[8] = s9, pH 7.4, read-out: T1/2 Human Intestinal S9
[9] = s9, pH 7.4, read-out: T1/2 Human Liver S9
[10] = intestinal S9, pH 7.4, read-out: T1/2 Rat Intestinal S9
[11] = liver S9, pH 7.4, read-out: T1/2 Rat Liver S9
[12] = intestinal S9 (without PMSF), pH 7.4, read-out: T1/2 Human Intestinal S9
[13] = liver S9, pH 7.4, read-out: T1/2 Human Liver S9

SMILES | half-life at 10 μM ([1]; buffer) [min] | half-life at 10 μM [2, 6] [min] | half-life at 10 μM [3, 7] [min] | half-life at 10 μM [4, 8] [min] | half-life at 10 μM [5, 9] [min] | half-life at 10 μM ([1]; HEPES buffer without enzyme) [min] | half-life at 10 μM [2, 10] [min] | half-life at 10 μM [3, 11] [min] | half-life at 10 μM [4, 12] [min] | half-life at 10 μM [5, 13] [min]
CC[C@H](C)OC(=O)[C@@H](F)ON1C(=O)N2C[C@H]1C=C(C)[C@H]2C(N)=O [Example 20, (2R)-(S)-sec-butyl 2-(((2S,5R)-2-carbamoyl-3-methyl-7-oxo-1,6-diazabicyclo[3.2.1]oct-3-en-6-yl)oxy)-2-fluoroacetate] | 39 | 54 | 6.1 | 40 | 5.1 |  |  |  |  | 
CC[C@@H](C)OC(=O)[C@@H](F)ON1C(=O)N2C[C@H]1C=C(C)[C@H]2C(N)=O [Example 22, (2R)-(R)-sec-butyl 2-(((2S,5R)-2-carbamoyl-3-methyl-7-oxo-1,6-diazabicyclo[3.2.1]oct-3-en-6-yl)oxy)-2-fluoroacetate] | 38 | 56 | 9.2 | 43 | 4.6 |  |  |  |  | 
CCOC(=O)[C@@H](F)ON1C(=O)N2C[C@H]1C(C)=C[C@H]2C(N)=O [Example 31, (2R)-ethyl 2-(((2S,5R)-2-carbamoyl-4-methyl-7-oxo-1,6-diazabicyclo[3.2.1]oct-3-en-6-yl)oxy)-2-fluoroacetate] | 44 | 42 | 20 | 35 | 27 |  |  |  |  | 
CCOC(=O)[C@H](F)ON1C(=O)N2C[C@H]1C(C)=C[C@H]2C(N)=O [Example 32, (2S)-ethyl 2-(((2S,5R)-2-carbamoyl-4-methyl-7-oxo-1,6-diazabicyclo[3.2.1]oct-3-en-6-yl)oxy)-2-fluoroacetate] | 22 | 18 | 2.4 | 6.9 | 2.4 |  |  |  |  | 
CC1=C[C@@H](C(N)=O)N2C[C@@H]1N(O[C@@H](F)C(=O)OC(C)C)C2=O [Example 36, (2S)-isopropyl 2-(((2S,5R)-2-carbamoyl-4-methyl-7-oxo-1,6-diazabicyclo[3.2.1]oct-3-en-6-yl)oxy)-2-fluoroacetate] | 91 | 68 | 3 | 36 | 8.5 |  |  |  |  | 
CCCCCCCCOC(=O)[C@@H](F)ON1C(=O)N2C[C@H]1C=C(C)[C@H]2C(N)=O [Example 45, octyl (2R)-2-[[(2S,5R)-2-carbamoyl-3-methyl-7-oxo-1,6-diazabicyclo[3.2.1]oct-3-en-6-yl]oxy]-2-fluoro-acetate] |  |  |  |  |  | 33 | 17 | 0.22 | 2 | 0.39
C=CCOC(=O)[C@@H](F)ON1C(=O)N2C[C@H]1C=C(C)[C@H]2C(N)=O [Example 47, allyl (2R)-2-[[(2S,5R)-2-carbamoyl-3-methyl-7-oxo-1,6-diazabicyclo[3.2.1]oct-3-en-6-yl]oxy]-2-fluoro-acetate] |  |  |  |  |  | 12 | 11 | 1.8 | 8.2 | 2.3
CCCOC(=O)[C@@H](F)ON1C(=O)N2C[C@H]1C=C(C)[C@H]2C(N)=O [Example 48, propyl (2R)-2-[[(2S,5R)-2-carbamoyl-3-methyl-7-oxo-1,6-diazabicyclo[3.2.1]oct-3-en-6-yl]oxy]-2-fluoro-acetate] |  |  |  |  |  | 62 | 50 | 3 | 42 | 6.1
CC1=C[C@@H]2CN(C(=O)N2O[C@H](F)C(=O)OCC(C)C)[C@@H]1C(N)=O [Example 49, isobutyl (2R)-2-[[(2S,5R)-2-carbamoyl-3-methyl-7-oxo-1,6-diazabicyclo[3.2.1]oct-3-en-6-yl]oxy]-2-fluoro-acetate] |  |  |  |  |  | 68 | 26 | 1.8 | 32 | 6.9
